Experimental data taken from paper PMC8237303 (Heliyon, 2021).

How the values were obtained:
[1] = system: Glutamate receptor (Kainate); experiment: [3H]-Kainic Acid binding assay; details: 0.1 mM l-menthol; Rat whole brain
[2] = system: K Channel SkCa; experiment: [125I]-Apamin binding assay; details: 0.1 mM l-menthol; Rat whole brain
[3] = target: Neurokinin NK2 receptor (Human) (Homo sapiens, UniProt P21452); experiment: [3H]-SR 48968 binding assay; details: 0.1 mM l-menthol; Human recombinant
[4] = target: T1, CRF1 receptor (Human) (Homo sapiens, UniProt P34998); experiment: [125I]-Corticotropin Releasing Factor; assay type: binding; details: 0.1 mM l-menthol; Human recombinant
T1 sequence (P34998 24-415): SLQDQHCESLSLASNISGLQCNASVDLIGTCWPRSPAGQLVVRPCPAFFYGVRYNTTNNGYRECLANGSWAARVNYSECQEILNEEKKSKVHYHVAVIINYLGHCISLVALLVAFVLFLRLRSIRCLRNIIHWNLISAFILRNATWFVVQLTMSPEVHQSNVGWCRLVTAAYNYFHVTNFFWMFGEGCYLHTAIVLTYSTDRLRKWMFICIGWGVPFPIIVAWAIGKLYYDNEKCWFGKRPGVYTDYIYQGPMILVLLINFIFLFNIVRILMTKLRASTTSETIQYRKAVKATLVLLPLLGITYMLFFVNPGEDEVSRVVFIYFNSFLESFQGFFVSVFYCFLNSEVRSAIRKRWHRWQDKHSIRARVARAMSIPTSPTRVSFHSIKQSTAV

[5] = system: Nicotinic receptor (Human); experiment: [3H]-; assay type: binding; details: 0.1 mM l-menthol; Human receptor (Non-recombinant)
[6] = system: K Channel KATP; experiment: [3H]-Glybenclamide binding assay; details: 0.1 mM l-menthol; Rat whole brain
[7] = target: Dopamine D3 receptor (Human) (Homo sapiens, UniProt P35462); experiment: R-; assay type: binding; details: 0.1 mM l-menthol; Human recombinant
[8] = target: Opiate ORL1 receptor (Human) (Homo sapiens, UniProt P41146); experiment: [3H]-Nociceptin binding assay; details: 0.1 mM l-menthol; Human recombinant
[9] = target: Vasopressin V1 receptor (Rattus norvegicus, UniProt P30560); experiment: [3H]-Vasopressin, 8-L-Arginine binding assay; details: 0.1 mM l-menthol; Rat liver
[10] = target: Norepinephrine transporter (Human) (Homo sapiens, UniProt P23975); experiment: [3H]-Nisoxetine hydrochloride binding assay; details: 0.1 mM l-menthol; Human recombinant
[11] = target: Muscarinic M5 receptor (Human) (Homo sapiens, UniProt P08912); experiment: [3H]-Scopolamine Methyl Chloride binding assay; details: 0.1 mM l-menthol; Human recombinant
[12] = target: Serotonin 5HT1A receptor (Human) (Homo sapiens, UniProt P08908); experiment: [3H]-8-Hydreoxy-DPAT binding assay; details: 0.1 mM l-menthol; Human recombinant
[13] = target: Cannabinoid CB1 receptor (Human) (Homo sapiens, UniProt P21554); experiment: [3H]-CP-55,940 binding assay; details: 0.1 mM l-menthol; Human recombinant
[14] = target: Neuropeptide Y1 receptor (Human) (Homo sapiens, UniProt P25929); experiment: [125I]-Peptide YY; assay type: binding; details: 0.1 mM l-menthol; Human receptor (Non-recombinant)
[15] = target: CCK A receptor (Human) (Homo sapiens, UniProt P32238); experiment: [125I]-Cholecystokinin Octapeptide binding assay; details: 0.1 mM l-menthol; Human recombinant
[16] = target: Neurokinin NK3 receptor (Human) (Homo sapiens, UniProt P29371); experiment: [125I]-Neurokinin B; assay type: binding; details: 0.1 mM l-menthol; Human recombinant
[17] = system: Imidazoline receptor (Central); experiment: [3H]RX 781094; assay type: binding; details: 0.1 mM l-menthol; Rat cerebral cortex
[18] = target: Muscarinic M1 receptor (Human) (Homo sapiens, UniProt P11229); experiment: [3H]-Scopolamine Methyl Chloride binding assay; details: 0.1 mM l-menthol; Human recombinant
[19] = system: Glutamate (NMDA polyamine site); experiment: [3H]-Ifenprodil binding assay; details: 0.1 mM l-menthol; Rat cerebral cortex
[20] = target: Cannabinoid CB2 receptor (Human) (Homo sapiens, UniProt P34972); experiment: [3H]-CP-55,940 binding assay; details: 0.1 mM l-menthol; Human recombinant
[21] = system: Glutamate receptor (AMPA); experiment: D,L-alpha-[3H]-Amino-3-Hydroxy-Methylisoxazole-4-Propionic Acid; assay type: binding; details: 0.1 mM l-menthol; Rat cerebral cortex
[22] = target: Dopamine D5 receptor (Human) (Homo sapiens, UniProt P21918); experiment: [3H]SCH 23390 binding assay; details: 0.1 mM l-menthol; Human recombinant
[23] = target: Dopamien D1 receptor (Human) (Homo sapiens, UniProt P21728); experiment: [3H]–SCH–23390 hydrochloride binding assay; details: 0.1 mM l-menthol; Human recombinant
[24] = target: Opiate κ receptor (Human) (Homo sapiens, UniProt P41145); assay type: binding; details: 0.1 mM l-menthol
[25] = target: Endothelin ETB receptor (Human) (Homo sapiens, UniProt P24530); experiment: [125I]-Endothelin-1; assay type: binding; details: 0.1 mM l-menthol; Human recombinant
[26] = target: Adenosine transporter (Human) (Homo sapiens, UniProt Q99808); experiment: [3H]-S-; assay type: binding; details: 0.1 mM l-menthol; Human receptor
[27] = system: GABA transporter; experiment: gamma-[3H]-Aminobutyric Acid; assay type: binding; details: 0.1 mM l-menthol; Rat cerebral cortex; in the presence of isoguvacine hydrochloride and S (−)-baclofen hydrochloride
[28] = target: α2A-Adrenergic receptor (Human) (Homo sapiens, UniProt P08913); experiment: [3H]-Rauwolscine hydrochloride binding assay; details: 0.1 mM l-menthol; Human recombinant
[29] = system: PAF receptor; experiment: 1-O-Hexadecyl-[3H]-Platelet Activating Factor; assay type: binding; details: 0.1 mM l-menthol; Rabbit platelet
[30] = target: Adenosine A1 receptor (Human) (Homo sapiens, UniProt P30542); experiment: [3H]8-Cyclopentyl-1,3-dipropylxanthine; assay type: binding; details: 0.1 mM l-menthol; Human recombinant
[31] = system: Ca channel (Type L, Benzothiazepine); experiment: [3H]-; assay type: binding; details: 0.1 mM l-menthol; Rat cerebral cortex
[32] = target: Testosterone receptor (Human) (Homo sapiens, UniProt P10275); experiment: [3H]-Methyltrienolone; assay type: binding; details: 0.1 mM l-menthol
[33] = system: K channel KA; experiment: [125I]-Dendrotoxin binding assay; details: 0.1 mM l-menthol; Rat cerebral cortex
[34] = target: Angiotensin AT1 receptor (Human) (Homo sapiens, UniProt P30556); experiment: [125I]-Angiotensin II; assay type: binding; details: 0.1 mM l-menthol; Human recombinant
[35] = system: Glycine receptor (Strychnine sensitive); assay type: binding; details: 0.1 mM l-menthol; Rat spinal cord
[36] = system: Ca Channel (Type L, Dihydropyridine); experiment: [3H]-PN200-110 binding assay; details: 0.1 mM l-menthol; Rat cerebral cortex
[37] = target: Serotonin 5HT2A receptor (Human) (Homo sapiens, UniProt P28223); experiment: [3H]-Ketanserin hydrochloride binding assay; details: 0.1 mM l-menthol; Human recombinant
[38] = target: Muscarinic M4 receptor (Human) (Homo sapiens, UniProt P08173); experiment: [3H]-Scopolamine Methyl Chloride binding assay; details: 0.1 mM l-menthol; Human recombinant
Sequence of Muscarinic M4 receptor (Human) (P08173 whole entry): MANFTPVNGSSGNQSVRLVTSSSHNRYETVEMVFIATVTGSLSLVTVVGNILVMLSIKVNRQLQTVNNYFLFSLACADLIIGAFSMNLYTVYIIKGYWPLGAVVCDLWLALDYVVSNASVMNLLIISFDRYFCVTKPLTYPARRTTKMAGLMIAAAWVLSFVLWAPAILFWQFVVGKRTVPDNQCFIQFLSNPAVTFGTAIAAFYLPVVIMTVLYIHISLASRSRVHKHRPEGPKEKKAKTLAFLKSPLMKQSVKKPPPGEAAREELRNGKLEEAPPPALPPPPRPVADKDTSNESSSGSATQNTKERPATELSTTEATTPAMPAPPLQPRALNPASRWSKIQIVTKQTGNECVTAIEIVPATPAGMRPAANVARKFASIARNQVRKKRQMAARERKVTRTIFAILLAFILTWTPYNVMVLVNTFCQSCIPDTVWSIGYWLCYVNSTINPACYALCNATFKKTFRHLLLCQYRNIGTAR

Sequence of Serotonin 5HT2A receptor (Human) (P28223 whole entry): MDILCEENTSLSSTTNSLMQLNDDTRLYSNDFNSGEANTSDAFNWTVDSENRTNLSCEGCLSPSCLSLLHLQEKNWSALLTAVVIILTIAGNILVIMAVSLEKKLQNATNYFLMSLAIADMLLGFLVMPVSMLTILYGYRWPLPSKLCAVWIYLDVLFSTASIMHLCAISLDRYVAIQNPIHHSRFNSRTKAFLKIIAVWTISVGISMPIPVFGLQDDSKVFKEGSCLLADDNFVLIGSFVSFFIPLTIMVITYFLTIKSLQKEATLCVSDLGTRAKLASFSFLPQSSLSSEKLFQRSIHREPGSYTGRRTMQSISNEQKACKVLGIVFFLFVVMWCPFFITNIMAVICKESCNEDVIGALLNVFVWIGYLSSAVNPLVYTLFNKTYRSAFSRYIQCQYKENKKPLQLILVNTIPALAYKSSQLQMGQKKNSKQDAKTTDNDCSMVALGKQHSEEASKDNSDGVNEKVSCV
Sequence of Vasopressin V1 receptor (P30560 whole entry): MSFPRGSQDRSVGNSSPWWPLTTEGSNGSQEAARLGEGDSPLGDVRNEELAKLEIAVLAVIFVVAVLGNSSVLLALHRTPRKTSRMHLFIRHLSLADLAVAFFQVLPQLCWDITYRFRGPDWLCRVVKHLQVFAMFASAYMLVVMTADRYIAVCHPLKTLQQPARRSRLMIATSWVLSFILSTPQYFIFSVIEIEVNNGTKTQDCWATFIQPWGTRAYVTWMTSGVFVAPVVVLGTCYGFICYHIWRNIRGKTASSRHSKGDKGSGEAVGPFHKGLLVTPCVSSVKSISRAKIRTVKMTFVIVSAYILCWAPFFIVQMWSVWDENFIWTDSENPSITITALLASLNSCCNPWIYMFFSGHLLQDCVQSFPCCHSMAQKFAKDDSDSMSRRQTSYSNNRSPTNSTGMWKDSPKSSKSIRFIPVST
Sequence of Norepinephrine transporter (Human) (P23975 whole entry): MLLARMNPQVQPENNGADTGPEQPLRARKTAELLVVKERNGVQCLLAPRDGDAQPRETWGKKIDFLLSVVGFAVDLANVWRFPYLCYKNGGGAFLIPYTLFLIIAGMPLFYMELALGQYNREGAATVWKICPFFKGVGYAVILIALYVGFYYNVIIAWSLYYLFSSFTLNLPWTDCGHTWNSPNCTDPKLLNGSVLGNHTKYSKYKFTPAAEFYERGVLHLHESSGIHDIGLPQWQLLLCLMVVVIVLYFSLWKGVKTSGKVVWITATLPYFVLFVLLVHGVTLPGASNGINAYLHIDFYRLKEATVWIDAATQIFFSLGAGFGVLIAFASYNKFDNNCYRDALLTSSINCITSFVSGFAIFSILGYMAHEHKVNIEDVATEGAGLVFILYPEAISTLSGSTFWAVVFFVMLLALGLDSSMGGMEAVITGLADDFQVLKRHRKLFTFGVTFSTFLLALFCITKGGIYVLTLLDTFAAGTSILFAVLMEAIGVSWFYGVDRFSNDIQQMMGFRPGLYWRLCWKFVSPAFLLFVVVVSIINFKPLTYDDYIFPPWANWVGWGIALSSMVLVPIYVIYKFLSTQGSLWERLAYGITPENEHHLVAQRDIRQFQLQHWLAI
Sequence of Adenosine transporter (Human) (Q99808 whole entry): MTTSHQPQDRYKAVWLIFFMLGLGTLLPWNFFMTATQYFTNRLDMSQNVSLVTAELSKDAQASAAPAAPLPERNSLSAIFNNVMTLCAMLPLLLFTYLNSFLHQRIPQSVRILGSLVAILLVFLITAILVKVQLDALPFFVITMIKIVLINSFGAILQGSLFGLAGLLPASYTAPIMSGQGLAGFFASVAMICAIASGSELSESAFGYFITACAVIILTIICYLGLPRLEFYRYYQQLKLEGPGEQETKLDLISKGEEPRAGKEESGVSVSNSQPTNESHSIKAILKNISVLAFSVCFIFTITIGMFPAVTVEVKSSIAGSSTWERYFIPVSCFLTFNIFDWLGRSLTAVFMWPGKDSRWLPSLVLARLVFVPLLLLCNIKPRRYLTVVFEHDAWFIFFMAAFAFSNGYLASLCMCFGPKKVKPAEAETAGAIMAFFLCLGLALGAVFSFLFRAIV
Sequence of CCK A receptor (Human) (P32238 whole entry): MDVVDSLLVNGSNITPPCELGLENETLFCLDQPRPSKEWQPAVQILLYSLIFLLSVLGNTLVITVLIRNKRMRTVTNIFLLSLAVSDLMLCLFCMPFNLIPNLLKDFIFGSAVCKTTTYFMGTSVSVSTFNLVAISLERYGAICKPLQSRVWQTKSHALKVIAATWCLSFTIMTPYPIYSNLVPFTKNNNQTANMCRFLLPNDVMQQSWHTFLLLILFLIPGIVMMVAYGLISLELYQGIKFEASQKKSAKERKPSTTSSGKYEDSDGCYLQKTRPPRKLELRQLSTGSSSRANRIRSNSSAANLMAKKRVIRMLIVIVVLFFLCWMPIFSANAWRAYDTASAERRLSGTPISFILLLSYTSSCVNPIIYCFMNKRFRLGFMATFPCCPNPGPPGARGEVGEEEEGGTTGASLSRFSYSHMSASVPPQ
Sequence of Adenosine A1 receptor (Human) (P30542 whole entry): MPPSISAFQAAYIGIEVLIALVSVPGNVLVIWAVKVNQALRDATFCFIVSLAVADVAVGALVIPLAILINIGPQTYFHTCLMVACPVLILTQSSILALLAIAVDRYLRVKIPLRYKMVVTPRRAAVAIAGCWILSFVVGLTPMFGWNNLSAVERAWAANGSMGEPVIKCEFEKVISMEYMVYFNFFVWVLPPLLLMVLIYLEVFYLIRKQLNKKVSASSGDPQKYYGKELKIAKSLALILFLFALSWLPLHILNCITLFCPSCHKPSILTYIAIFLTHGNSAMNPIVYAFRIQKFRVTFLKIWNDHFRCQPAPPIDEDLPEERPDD
Sequence of Dopamine D3 receptor (Human) (P35462 whole entry): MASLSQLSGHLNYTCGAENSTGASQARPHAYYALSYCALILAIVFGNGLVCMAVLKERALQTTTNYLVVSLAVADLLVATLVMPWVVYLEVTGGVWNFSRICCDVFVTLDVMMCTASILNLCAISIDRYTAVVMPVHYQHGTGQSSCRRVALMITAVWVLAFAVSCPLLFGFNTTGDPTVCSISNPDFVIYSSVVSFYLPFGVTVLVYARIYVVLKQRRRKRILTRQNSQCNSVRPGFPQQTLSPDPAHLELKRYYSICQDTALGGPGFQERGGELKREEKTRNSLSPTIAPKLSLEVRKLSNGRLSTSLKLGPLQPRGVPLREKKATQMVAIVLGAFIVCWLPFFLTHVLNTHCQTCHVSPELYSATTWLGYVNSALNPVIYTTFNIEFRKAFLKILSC
Sequence of Cannabinoid CB2 receptor (Human) (P34972 whole entry): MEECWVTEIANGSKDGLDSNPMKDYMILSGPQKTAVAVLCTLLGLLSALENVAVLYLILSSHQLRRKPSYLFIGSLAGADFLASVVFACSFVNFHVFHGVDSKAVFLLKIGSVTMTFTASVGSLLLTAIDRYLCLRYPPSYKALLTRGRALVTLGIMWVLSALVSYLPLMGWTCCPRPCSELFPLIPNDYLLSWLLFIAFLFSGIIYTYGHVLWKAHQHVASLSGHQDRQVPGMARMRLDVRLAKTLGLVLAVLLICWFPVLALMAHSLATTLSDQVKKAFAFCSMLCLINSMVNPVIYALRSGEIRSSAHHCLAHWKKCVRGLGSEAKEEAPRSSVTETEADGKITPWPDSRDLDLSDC
Sequence of Serotonin 5HT1A receptor (Human) (P08908 whole entry): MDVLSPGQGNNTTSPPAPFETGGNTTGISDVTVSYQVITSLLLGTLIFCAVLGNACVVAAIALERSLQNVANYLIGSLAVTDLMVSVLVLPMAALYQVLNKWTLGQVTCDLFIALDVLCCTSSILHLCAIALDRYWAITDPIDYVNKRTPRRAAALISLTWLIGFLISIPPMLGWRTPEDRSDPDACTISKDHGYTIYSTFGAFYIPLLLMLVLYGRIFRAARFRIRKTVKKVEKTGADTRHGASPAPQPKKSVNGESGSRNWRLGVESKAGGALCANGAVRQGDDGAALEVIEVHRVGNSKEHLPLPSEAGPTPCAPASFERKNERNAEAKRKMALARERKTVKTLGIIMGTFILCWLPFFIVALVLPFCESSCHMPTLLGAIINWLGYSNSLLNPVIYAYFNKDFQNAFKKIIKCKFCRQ
Sequence of Neurokinin NK2 receptor (Human) (P21452 whole entry): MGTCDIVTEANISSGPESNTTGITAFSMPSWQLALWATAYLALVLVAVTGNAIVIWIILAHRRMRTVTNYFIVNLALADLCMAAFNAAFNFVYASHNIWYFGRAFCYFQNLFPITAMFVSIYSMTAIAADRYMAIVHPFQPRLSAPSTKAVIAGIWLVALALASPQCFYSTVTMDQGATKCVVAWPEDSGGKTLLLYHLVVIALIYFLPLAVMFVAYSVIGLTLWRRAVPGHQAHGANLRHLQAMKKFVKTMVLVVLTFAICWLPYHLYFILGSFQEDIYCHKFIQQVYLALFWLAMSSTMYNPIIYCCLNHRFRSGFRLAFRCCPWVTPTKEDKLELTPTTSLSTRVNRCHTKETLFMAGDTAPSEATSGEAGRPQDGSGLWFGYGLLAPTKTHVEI

CC(C)[C@@H]1CC[C@@H](C)C[C@H]1O [l-menthol]
Inhibition by l-Menthol (%) [1]: 0.14% | Inhibition by l-Menthol (%) [2]: 2.36% | Inhibition by l-Menthol (%) [3]: 6.12% | Inhibition by l-Menthol (%) [4]: 0% | Inhibition by l-Menthol (%) [5]: 0% | Inhibition by l-Menthol (%) [6]: 2.08% | Inhibition by l-Menthol (%) [7]: 6.32% | Inhibition by l-Menthol (%) [8]: 5.76% | Inhibition by l-Menthol (%) [9]: 0% | Inhibition by l-Menthol (%) [10]: 7.89% | Inhibition by l-Menthol (%) [11]: 0% | Inhibition by l-Menthol (%) [12]: 0% | Inhibition by l-Menthol (%) [13]: 9.12% | Inhibition by l-Menthol (%) [14]: 0.86% | Inhibition by l-Menthol (%) [15]: 0% | Inhibition by l-Menthol (%) [16]: 4.65% | Inhibition by l-Menthol (%) [17]: 6.53% | Inhibition by l-Menthol (%) [18]: 0% | Inhibition by l-Menthol (%) [19]: 3.79% | Inhibition by l-Menthol (%) [20]: 8.57% | Inhibition by l-Menthol (%) [21]: 0% | Inhibition by l-Menthol (%) [22]: 0% | Inhibition by l-Menthol (%) [23]: 0% | Inhibition by l-Menthol (%) [24]: 4.86% | Inhibition by l-Menthol (%) [25]: 3.39% | Inhibition by l-Menthol (%) [26]: 0.68% | Inhibition by l-Menthol (%) [27]: 10.09% | Inhibition by l-Menthol (%) [28]: 11.34% | Inhibition by l-Menthol (%) [29]: 0% | Inhibition by l-Menthol (%) [30]: 1.83% | Inhibition by l-Menthol (%) [31]: 0% | Inhibition by l-Menthol (%) [32]: 0% | Inhibition by l-Menthol (%) [33]: 5.11% | Inhibition by l-Menthol (%) [34]: 16.92% | Inhibition by l-Menthol (%) [35]: 0% | Inhibition by l-Menthol (%) [36]: 1.17% | Inhibition by l-Menthol (%) [37]: 8.32% | Inhibition by l-Menthol (%) [38]: 0%
